{"source": "patent US20130225591A1", "about": "“IMIDOTHIAZOLE KINASE INHIBITORS” (priority 2009, published 2013)", "data": [{"target": "T1, CDK5-p25 kinase (Homo sapiens, UniProt Q00535)", "T1 construct": "purchased Invitrogen PV4677", "T1 sequence (Q00535 whole entry)": "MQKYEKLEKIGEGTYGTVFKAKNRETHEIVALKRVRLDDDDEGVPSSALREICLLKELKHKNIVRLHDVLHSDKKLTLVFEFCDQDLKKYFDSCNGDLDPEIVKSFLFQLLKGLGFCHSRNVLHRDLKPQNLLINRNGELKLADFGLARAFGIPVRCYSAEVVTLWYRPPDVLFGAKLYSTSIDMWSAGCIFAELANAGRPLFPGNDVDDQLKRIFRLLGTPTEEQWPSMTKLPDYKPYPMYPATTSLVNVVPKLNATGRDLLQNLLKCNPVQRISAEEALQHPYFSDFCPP", "T1 sequence (Q15078 99-307 partner limits assumed)": "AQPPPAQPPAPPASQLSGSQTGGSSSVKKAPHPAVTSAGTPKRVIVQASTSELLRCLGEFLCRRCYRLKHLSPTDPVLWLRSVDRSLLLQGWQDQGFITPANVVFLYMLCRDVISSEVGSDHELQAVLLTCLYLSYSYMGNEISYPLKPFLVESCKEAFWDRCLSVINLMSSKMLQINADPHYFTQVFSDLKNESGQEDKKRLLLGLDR", "assay": "CDK5-p25 kinase enzymatic assay", "assay_type": "biochemical", "conditions": "50 nM-99 nM; 5 uM ATP, 0.3 nM CDK5-p25; read-out: IC50 potency, CDK5-p25 kinase enzymatic assay, 50 nM-99 nM", "method": "(§1) CDK5-p25 kinase (Invitrogen PV4677) enzymatic activity was measured using electrophoretic separation and fluorescent detection to monitor phosphorylation of a fluorescently labeled histone H1-derived peptide substrate, FL29 (5-FAM-GGGPATPKKAKKL-CONH2, Caliper #760429)\n(§2) First, 0.25 uL of serially diluted compound in DMSO at 100× concentration was transferred into each well of a 384-well polystyrene assay plate. To this was added 15 uL of a 1.67× enzyme solution (500 pM enzyme, 1 mM DTT (Sigma D9779), 1× reconstitution buffer with protease inhibitor (Caliper #700329 proprietary formulation)), followed by centrifugation for 1 min at 1000 rpm, and incubation for 5-15 min at room temperature to allow binding of compound to enzyme. To initiate the reaction, 10 uL of substrate/ATP mix (245 mM Hepes pH 7.5, 0.003% Brij 35, 0.004% Tween, 12.75 uM ATP, 3.75 uM FL29 peptide) were added to each well, followed by centrifugation at 1000 rpm for 1 min. The reaction was then incubated at room temperature for 30 min. Final assay conditions were: 0.3 nM CDK5-p25, 1.5 uM peptide, 5 uM ATP, 0.6 mM DTT, 1% DMSO, 98 mM HEPES pH 7.5.\n(§3) After incubation, reactions were quenched by the addition of 45 uL Caliper termination solution (Caliper proprietary formula), followed by centrifugation at 1000 rpm for 1 min. Extent of reaction (percentage conversion of substrate to phosphorylated product) was then measured using the Caliper EZ II reader. Dose-response curves were created by plotting the inhibition of enzyme activity (normalized relative to vehicle treated and no ATP control reactions) as a function of the log of compound concentration. The curve was analyzed using a four parameter logistical fit to calculate IC50 values.", "units": {"IC50": "nM"}, "values": [{"smiles": "O=C(Cc1ccc(CO)cc1)Nc1ncn2c(C(F)(F)F)csc12", "note": "[Example 71, 2-[4-(hydroxymethyl)phenyl]-N-[3-(trifluoromethyl)imidazo[5,1-b][1,3]thiazol-7-yl]acetamide]", "IC50": "50 to 99"}, {"smiles": "O=C(Cc1ccc(C(=O)N2CCCC2)cc1)Nc1ncn2c(C(F)(F)F)csc12", "note": "[Example 74, 2-[4-(pyrrolidin-1-ylcarbonyl)phenyl]-N-[3-(trifluoromethyl)imidazo[5,1-b][1,3]thiazol-7-yl]acetamide]", "IC50": "50 to 99"}]}, {"target": "T1, CDK5-p25 kinase", "assay": "CDK5-p25 kinase enzymatic assay", "assay_type": "biochemical", "conditions": "500 nM-3 μM; 5 uM ATP, 0.3 nM CDK5-p25; read-out: IC50 potency, CDK5-p25 kinase enzymatic assay, 500 nM-3 μM", "method": "as §1, §2, §3", "units": {"IC50": "nM"}, "values": [{"smiles": "O=C(Cc1ccc2ccccc2c1)Nc1ncn2ccsc12", "note": "[Example 82, N-imidazo[5,1-b][1,3]thiazol-7-yl-2-(2-naphthyl)acetamide]", "IC50": "500 to 3000"}, {"smiles": "N#Cc1csc2c(NC(=O)Cc3ccc4ccccc4c3)ncn12", "note": "[Example 84, N-(3-cyanoimidazo[5,1-b][1,3]thiazol-7-yl)-2-(naphthalen-2-yl)acetamide]", "IC50": "500 to 3000"}]}, {"target": "T1, CDK5-p25 kinase", "assay": "CDK5-p25 kinase enzymatic assay", "assay_type": "biochemical", "conditions": "5 uM ATP, 0.3 nM CDK5-p25; read-out: IC50 potency, CDK5-p25 kinase enzymatic assay, 100 nM-499 nM", "method": "as §1, §2, §3", "units": {"IC50": "nM"}, "values": [{"smiles": "O=C(Cc1ccnnc1)Nc1ncn2c(C(F)(F)F)csc12", "note": "[Example 72, 2-pyridazin-4-yl-N-[3-(trifluoromethyl)imidazo[5,1-b][1,3]thiazol-7-yl]acetamide]", "IC50": "100 to 499"}, {"smiles": "NCc1cccc(CC(=O)Nc2ncn3c(C(F)(F)F)csc23)c1", "note": "[Example 75, 2-[3-(aminomethyl)phenyl]-N-[3-(trifluoromethyl)imidazo[5,1-b][1,3]thiazol-7-yl]acetamide]", "IC50": "100 to 499"}]}, {"target": "T1, CDK5-p25 kinase", "assay": "CDK5-p25 kinase enzymatic assay", "assay_type": "biochemical", "conditions": "'<50 nM'; 5 uM ATP, 0.3 nM CDK5-p25; read-out: IC50 potency, CDK5-p25 kinase enzymatic assay, <50 nM", "method": "as §1, §2, §3", "units": {"IC50": "nM"}, "values": [{"smiles": "Cc1nc2cc(CC(=O)Nc3ncn4c(C(F)(F)F)csc34)ccc2o1", "note": "[Example 69, 2-(2-methyl-1,3-benzoxazol-5-yl)-N-[3-(trifluoromethyl)imidazo[5,1-b][1,3]thiazol-7-yl]acetamide]", "IC50": "< 50"}, {"smiles": "O=C(Cc1ccc(-c2nnco2)cc1)Nc1ncn2c(C(F)(F)F)csc12", "note": "[Example 70, 2-[4-(1,3,4-oxadiazol-2-yl)phenyl]-N-[3-(trifluoromethyl)imidazo[5,1-b][1,3]thiazol-7-yl]acetamide]", "IC50": "< 50"}, {"smiles": "O=C(Cc1ccc2[nH]cnc2c1)Nc1ncn2c(C(F)(F)F)csc12", "note": "[Example 73, 2-(1H-benzimidazol-5-yl)-N-[3-(trifluoromethyl)imidazo[5,1-b][1,3]thiazol-7-yl]acetamide]", "IC50": "< 50"}, {"smiles": "O=C(Cc1ccc(NC(=O)c2ccccc2)cc1)Nc1ncn2c(C(F)(F)F)csc12", "note": "[Example 79, N-[4-(2-oxo-2-{[3-(trifluoromethyl)imidazo[5,1-b][1,3]thiazol-7-yl)amino}ethyl)phenyl] benzamide]", "IC50": "< 50"}, {"smiles": "O=C(Cc1cccc(-c2nn[nH]n2)c1)Nc1ncn2c(C(F)(F)F)csc12", "note": "[Example 80, 2-[3-(2H-tetrazol-5-yl)phenyl]-N-[3-(trifluoromethyl)imidazo[5,1-b][1,3]thiazol-7-yl]acetamide]", "IC50": "< 50"}, {"smiles": "O=C(Cc1ccc(-c2nn[nH]n2)cc1)Nc1ncn2c(C(F)(F)F)csc12", "note": "[Example 81, 2-[4-(2H-tetrazol-5-yl)phenyl]-N-[3-(trifluoromethyl)imidazo[5,1-b][1,3]thiazol-7-yl]acetamide]", "IC50": "< 50"}, {"smiles": "O=C(Cc1ccc2ccccc2c1)Nc1ncn2ccsc12", "note": "[Example 82, N-imidazo[5,1-b][1,3]thiazol-7-yl-2-(2-naphthyl)acetamide]", "IC50": "< 50"}, {"smiles": "O=C(Cc1ccc2ccccc2c1)Nc1ncn2c(Br)csc12", "note": "[Example 83, N-(3-Bromoimidazo[5,1-b][1,3]thiazol-7-yl)-2-(naphthalen-2-yl)acetamide]", "IC50": "< 50"}, {"smiles": "O=C(Cc1ccc2ccccc2c1)Nc1ncn2c(C(F)(F)F)c(C(=O)O)sc12", "note": "[Example 85, 7-[(Naphthalen-2-ylacetyl)amino]-3-(trifluoromethyl)imidazo[5,1-b][1,3]thiazole-2-carboxylic Acid]", "IC50": "< 50"}, {"smiles": "NC(=O)c1sc2c(NC(=O)Cc3ccc4ccccc4c3)ncn2c1C(F)(F)F", "note": "[Example 86, 7-[(Naphthalen-2-ylacetyl)amino]-3-(trifluoromethyl)imidazo[5,1-b][1,3]thiazole-2-carboxyamide]", "IC50": "< 50"}]}]}
